In PubChem BioAssay AID248 (DTP/NCI, 2004):
Several values for one entry are separate records, joined by “and”; a condition that tells them apart may be missing. Equal entries are not always repeated. Toxic doses and inconclusive results are not listed. Cut-off read from the data, not from the text of the source: active = T/C of 150% or more; inactive = T/C below 125%.

Test system: L1210 leukemia ip in BDF1 mice, survival T/C
Assay: NCI In Vivo Anticancer Drug Screen. Data for tumor model L1210 Leukemia (intraperitoneal) in B6D2F1 (BDF1) mice
Details: endpoint: mean survival time, higher = longer survival
Procedure, shortened: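 In this screen, tumor-bearing mice given compound are compared to those given vehicle, and their survival values are reported as a treated-to-control quotient.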

[1] = dose: 100.0 mg/kg/injection, schedule: Q04DX003 (ip), vehicle: saline
[2] = dose: 200.0 mg/kg/injection, schedule: Q04DX003 (ip), vehicle: saline
[3] = dose: 400.0 mg/kg/injection, schedule: Q04DX003 (ip), vehicle: saline
[4] = dose: 100.0 mg/kg/injection, schedule: Q04DX003 (ip), vehicle: Klucel (hydroxypropylcellulose) (HPC)
[5] = dose: 200.0 mg/kg/injection, schedule: Q04DX003 (ip), vehicle: Klucel (hydroxypropylcellulose) (HPC)
[6] = dose: 400.0 mg/kg/injection, schedule: Q04DX003 (ip), vehicle: Klucel (hydroxypropylcellulose) (HPC)
[7] = dose: 50.0 mg/kg/injection, schedule: Q01DX009 (ip), vehicle: saline
[8] = dose: 100.0 mg/kg/injection, schedule: Q01DX009 (ip), vehicle: saline
[9] = dose: 200.0 mg/kg/injection, schedule: Q01DX009 (ip), vehicle: saline
[10] = dose: 100.0 mg/kg/injection, schedule: Q01DX009 (ip), vehicle: saline with Tween-80
[11] = dose: 100.0 mg/kg/injection, schedule: Q01DX001 (ip), vehicle: Klucel (hydroxypropylcellulose) (HPC)
[12] = dose: 100.0 mg/kg/injection, schedule: Q01DX009 (ip), vehicle: Klucel (hydroxypropylcellulose) (HPC)
[13] = dose: 100.0 mg/kg/injection, schedule: Q04DX002 (ip), vehicle: Klucel (hydroxypropylcellulose) (HPC)
[14] = dose: 200.0 mg/kg/injection, schedule: Q01DX001 (ip), vehicle: Klucel (hydroxypropylcellulose) (HPC)
[15] = dose: 200.0 mg/kg/injection, schedule: Q01DX009 (ip), vehicle: Klucel (hydroxypropylcellulose) (HPC)
[16] = dose: 200.0 mg/kg/injection, schedule: Q04DX002 (ip), vehicle: Klucel (hydroxypropylcellulose) (HPC)
[17] = dose: 400.0 mg/kg/injection, schedule: Q01DX001 (ip), vehicle: Klucel (hydroxypropylcellulose) (HPC)
[18] = dose: 400.0 mg/kg/injection, schedule: Q01DX009 (ip), vehicle: Klucel (hydroxypropylcellulose) (HPC)
[19] = dose: 12.5 mg/kg/injection, schedule: Q01DX009 (ip), vehicle: Klucel (hydroxypropylcellulose) (HPC)
[20] = dose: 25.0 mg/kg/injection, schedule: Q01DX009 (ip), vehicle: Klucel (hydroxypropylcellulose) (HPC)

Measured: T/C

O=C(c1ccc(Cl)c(Cl)c1)n1c2ccccc2c2ccccc21
inactive: [1] 102 % of control | [2] 100 % of control | [3] 100 % of control

O=C1C=CC(=O)N1c1ccccc1[N+](=O)[O-]
inactive: dose: 1.5 mg/kg/injection, schedule: Q01DX009 (ip), vehicle: Klucel (hydroxypropylcellulose) (HPC) 97 % of control | dose: 3.0 mg/kg/injection, schedule: Q01DX009 (ip), vehicle: Klucel (hydroxypropylcellulose) (HPC) 103 % of control | dose: 6.0 mg/kg/injection, schedule: Q01DX009 (ip), vehicle: Klucel (hydroxypropylcellulose) (HPC) 94 % of control

Cc1c(O)c2ccc3ccccc3c2oc1=O
inactive: [1] 97 % of control | [2] 91 % of control

COC(=O)C1C2C(C)CC3(CC12C)OCCO3 (stereo unspecified)
inactive: dose: 100.0 mg/kg/injection, schedule: Q01DX009 (ip), vehicle: saline sonified 92 % of control | [4] 102 % of control | dose: 200.0 mg/kg/injection, schedule: Q01DX009 (ip), vehicle: saline sonified 97 % of control | [5] 93 % of control | dose: 400.0 mg/kg/injection, schedule: Q01DX009 (ip), vehicle: saline sonified 92 % of control | [6] 86 % of control

COc1ccc(/C=C/C(C)=O)cc1OC
inactive: dose: 6.25 mg/kg/injection, schedule: Q01DX009 (ip), vehicle: saline 91 % of control | dose: 12.5 mg/kg/injection, schedule: Q01DX009 (ip), vehicle: saline 100 % of control | dose: 25.0 mg/kg/injection, schedule: Q01DX009 (ip), vehicle: saline 91 % of control | [7] 87 % of control | [8] 88 % of control | [9] 88 % of control

CC(C)(CO)N(CC(=O)O)CC(=O)O
inactive: dose: 100.0 mg/kg/injection, schedule: Q01DX001 (ip), vehicle: saline 101 % of control | dose: 200.0 mg/kg/injection, schedule: Q01DX001 (ip), vehicle: saline 103 % of control

CCOC(=O)C(C#N)=P(c1ccccc1)(c1ccccc1)c1ccccc1
inactive: dose: 50.0 mg/kg/injection, schedule: Q01DX009 (ip), vehicle: saline with Tween-80 96 % of control | [10] 88 % of control | dose: 200.0 mg/kg/injection, schedule: Q01DX009 (ip), vehicle: saline with Tween-80 96 % of control

CC1(C(=O)O)CCC2(C)CCC3(C)C(=CC(=O)C4C5(C)CCC(OC6OC(C(=O)O)C(O)C(O)C6OC6OC(C(=O)O)C(O)C(O)C6O)C(C)(C)C5CCC43C)C2C1 (stereo unspecified)
inactive: [7] 94 % of control | [8] 91 % of control and 107 % of control and 100 % of control | [1] 100 % of control | [9] 91 % of control and 90 % of control and 94 % of control | [2] 105 % of control | dose: 400.0 mg/kg/injection, schedule: Q01DX009 (ip), vehicle: saline 98 % of control and 93 % of control | [3] 103 % of control

OCCOCc1ccccc1
inactive: [1] 104 % of control | [2] 98 % of control | [3] 100 % of control

C/C(CC(C)C)=N\NC(=O)Nc1cccc(Cl)c1C
inactive: [11] 86 % of control | [12] 99 % of control and 103 % of control | [13] 98 % of control and 92 % of control | [14] 93 % of control | [15] 96 % of control and 99 % of control | [16] 103 % of control and 92 % of control | [17] 93 % of control | [18] 93 % of control and 95 % of control | dose: 400.0 mg/kg/injection, schedule: Q04DX002 (ip), vehicle: Klucel (hydroxypropylcellulose) (HPC) 95 % of control

O=C(COc1ccccc1)Nc1ccc([N+](=O)[O-])cc1O
inactive: [4] 97 % of control | [5] 100 % of control | [6] 103 % of control

Cn1c(=O)c2c(ncn2CC[n+]2cccc(C(N)=O)c2)n(C)c1=O
inactive: [1] 101 % of control | [2] 97 % of control

CC(C)CC1NC(=O)C(NC(=O)C(Cc2ccccc2)N(C)C)C(C(C)C)Oc2ccc(cc2)/C=C\NC1=O (stereo unspecified)
inactive: dose: 50.0 mg/kg/injection, schedule: Q01DX001 (ip), vehicle: Klucel (hydroxypropylcellulose) (HPC) 90 % of control | [11] 90 % of control | [14] 93 % of control

COc1ccc(F)cc1CC#N
inactive: [13] 98 % of control | [16] 98 % of control

O=C(Nc1ccc(Cl)cc1)c1cccc([N+](=O)[O-])c1O
inactive: dose: 6.25 mg/kg/injection, schedule: Q01DX009 (ip), vehicle: Klucel (hydroxypropylcellulose) (HPC) 102 % of control | [19] 106 % of control | [20] 95 % of control

CCCCCc1c(CCC)[nH]c(=O)[nH]c1=O
inactive: [11] 105 % of control | [14] 106 % of control | [17] 90 % of control

CCOC(=O)C(C)(C)C(C)=O
inactive: [12] 99 % of control | [4] 103 % of control | [15] 99 % of control | [5] 103 % of control | [18] 95 % of control | [6] 97 % of control

O=C(CC(c1ccccc1)N1CCN(c2ccccc2)CC1)c1ccc(F)cc1 (stereo unspecified)
inactive: [19] 88 % of control | [20] 93 % of control | dose: 50.0 mg/kg/injection, schedule: Q01DX009 (ip), vehicle: Klucel (hydroxypropylcellulose) (HPC) 93 % of control | dose: 200.0 mg/kg/injection, schedule: Q01DX009 (ip), vehicle: gum acacia 87 % of control | dose: 400.0 mg/kg/injection, schedule: Q01DX009 (ip), vehicle: gum acacia 89 % of control

COc1ccc2c3c(c4cc(OC)c(OC)cc4c2c1)C[C@H]1CCCCN1C3
inactive: dose: 0.06 mg/kg/injection, schedule: Q01DX Z (ip), vehicle: carboxymethylcellulose (CMC) 103 % of control | dose: 0.12 mg/kg/injection, schedule: Q01DX Z (ip), vehicle: carboxymethylcellulose (CMC) 108 % of control | dose: 0.25 mg/kg/injection, schedule: Q01DX Z (ip), vehicle: carboxymethylcellulose (CMC) 105 % of control | dose: 0.25 mg/kg/injection, schedule: Q01DX Z (ip), vehicle: other 116 % of control | dose: 0.5 mg/kg/injection, schedule: Q01DX Z (ip), vehicle: carboxymethylcellulose (CMC) 114 % of control and 124 % of control | dose: 0.5 mg/kg/injection, schedule: Q01DX Z (ip), vehicle: other 123 % of control | dose: 0.5 mg/kg/injection, schedule: Q01DX Z (ip), vehicle: saline 115 % of control | dose: 1.0 mg/kg/injection, schedule: Q01DX001 (ip), vehicle: saline 105 % of control | dose: 1.0 mg/kg/injection, schedule: Q01DX Z (ip), vehicle: carboxymethylcellulose (CMC) 122 % of control | dose: 1.0 mg/kg/injection, schedule: Q01DX Z (ip), vehicle: saline 115 % of control | dose: 2.0 mg/kg/injection, schedule: Q01DX001 (ip), vehicle: saline 105 % of control | dose: 2.0 mg/kg/injection, schedule: Q01DX Z (ip), vehicle: other 88 % of control | dose: 4.0 mg/kg/injection, schedule: Q01DX001 (ip), vehicle: saline 111 % of control

C=CSCCCCCCCC
inactive: dose: 100.0 mg/kg/injection, schedule: Q04DX003 (ip), vehicle: other 103 % of control | dose: 200.0 mg/kg/injection, schedule: Q04DX003 (ip), vehicle: other 97 % of control | dose: 400.0 mg/kg/injection, schedule: Q04DX003 (ip), vehicle: other 97 % of control

Nc1n[nH]c(C(=O)O)n1
inactive: [12] 98 % of control | [4] 107 % of control | [15] 107 % of control | [5] 93 % of control | [18] 105 % of control | [6] 93 % of control

CCOC(=O)C(Br)CCCC(Br)C(=O)OCC (stereo unspecified)
inactive: [10] 90 % of control | dose: 400.0 mg/kg/injection, schedule: Q01DX009 (ip), vehicle: saline with Tween-80 89 % of control

NC(N)=N/N=C/c1cccnc1
inactive: dose: 15.0 mg/kg/injection, schedule: Q01DX Z (oral), vehicle: saline 97 % of control | dose: 30.0 mg/kg/injection, schedule: Q01DX Z (oral), vehicle: saline 97 % of control | dose: 60.0 mg/kg/injection, schedule: Q01DX Z (oral), vehicle: saline 97 % of control and 100 % of control | dose: 120.0 mg/kg/injection, schedule: Q01DX Z (oral), vehicle: saline 96 % of control and 107 % of control | dose: 240.0 mg/kg/injection, schedule: Q01DX Z (oral), vehicle: saline 94 % of control | dose: 480.0 mg/kg/injection, schedule: Q01DX Z (oral), vehicle: saline 89 % of control
